Assay results reported in patent publication US20110257013A1, “METHOD FOR CONTROLLING FLOWERING TIME OF PLANT” (SUMITOMO CHEMICAL COMPANY, LIMITED, priority 2008, published 2011).

System: recombinant Arabidopsis thaliana
Experiment: Flowering induction in recombinant Arabidopsis thaliana
Assay type: in vivo
Details: Arabidopsis with vector (e); 50 μM CuSO4 medium for six hours; observed five days after treatment; compared to non-inducible group
Experimental: The vector (e) prepared in Example 1 was introduced into Agrobacterium (Agrobacterium tumefaciens strain C58C1). The resulting Agrobacterium was cultured in a LB agar medium (0.5% yeast extract, 1.0% bactotrypton, 0.5% saline, 1% agar) containing 50 mg/L kanamycin, 100 mg/L ampicillin, and 100 mg/L rifampicin, and a drug-resistant colony was selected to obtain recombinant Agrobacterium. Arabidopsis (Arabidopsis thaliana ecotype Columbia) was infected by the obtained recombinant Agrobacterium according to the method described in Model Plant Laboratory Manual (edited by Iwabuchi Masaki et al, 2000, Springer-Verlag Tokyo Co., Ltd., ISBN 4-431-70881-2 C3045) to introduce genes. After T1 seeds collected from the Arabidopsis subjected to gene introduction, the seeds were plated and grown on a modified MS agar medium (MS inorganic salts, B5 vitamin, 1% sucrose, 0.8% agar) containing 20 mg/L of Benlate, 200 mg/L of Claforan, and 25 mg/L kanamycin to select a plant individual resistant to kanamycin. The selected plant individual was transplanted to a pot in which culture soil was previously placed, and grown in an artificial weather chamber to obtain T2 seeds. […]

How did the flowering time turn out when `O=S(=O)([O-])[O-].[Cu+2]` [CuSO4] was run?
The flowering time was “flowering was induced earlier”.
